In patent US20060041123A1, “Antibacterial agents” (priority 2002, published 2006):
Counter-ions that a name gives are not always drawn.

Assay: Antimicrobial activity assay: whole-cell MIC by broth microdilution (NCCLS M7-A6)
Assay type: cell-based
Settings: not given
Method: Whole-cell antimicrobial activity was determined by broth microdilution using the National Committee for Clinical Laboratory Standards (NCCLS) recommended procedure, Document M7-A6, “Methods for Dilution Susceptibility Tests for Bacteria that Grow Aerobically”. The compounds were tested in serial two-fold dilutions ranging from 0.016 to 16 mcg/mL. Compounds were evaluated against a panel of Gram-positive organisms, including Staphylococcus aureus WCUH29, Streptococcus pneumoniae 1629, Streptococcus pyogenes CN 10, and Enterococcus faecalis 2. In addition, compounds were evaluated against a panel of Gram-negative strains including Haemophilus influenzae NEMC1, E. coli 7623, and Moraxella catarrhalis Ravasio. The minimum inhibitory concentration (MIC) was determined as the lowest concentration of compound that inhibited visible growth. A mirror reader was used to assist in determining the MIC endpoint.
Compounds of the present invention have MIC's ≦20 μg/ml versus all the organisms named above.

Structure (SMILES)	MIC
COc1ccc2ncc(F)c(CCN3CC[C@@H](NCc4ccc5c(n4)NC(=O)CS5)[C@@H](O)C3)c2n1.Cl.Cl (single isomer, unassigned; enantiomer 2) [Example 70]	≤ 2 mg/L

Same assay, conditions: versus all the organisms named above (S. aureus WCUH29, S. pneumoniae 1629, S. pyogenes CN 10, E. faecalis 2, H. influenzae NEMC1, E. coli 7623, M. catarrhalis Ravasio); read-out: MIC

Structure (SMILES)	MIC
COc1ccc2ncc(F)c(CCN3CCC(NCc4ccc5c(c4)CCO5)CC3)c2n1.Cl.Cl [Example 178, N-(2,3-dihydro-1-benzofuran-5-ylmethyl)-1-{2-[3-fluoro-6-(methoxy)-1,5-naphthyridin-4-yl]ethyl}-4-piperidinamine dihydrochloride]	≤ 2 mg/L
COc1cc(F)c2ncc(F)c(CCN3CC[C@H](NCc4cc5c(cn4)OCCO5)[C@H](O)C3)c2c1.Cl.Cl.Cl.Cl (single isomer, unassigned; enantiomer 1) [Example 74]	≤ 2 mg/L
COc1ccc2ncc(F)c(CCN3CCC(CO)(NCc4cc5c(cn4)OCCO5)CC3)c2c1.Cl.Cl [Example 92, (4[(2,3-dihydro[1,4]dioxino[2,3-c]pyridin-7-ylmethyl)amino]-1-{2-[3-fluoro-6-(methoxy)-4-quinolinyl]ethyl}-4-piperidinyl)methanol dihydrochloride]	≤ 2 mg/L
COc1ccc2ncc(F)c(CCN3CCC(NCc4ccc5c(c4)OCCO5)CC3)c2n1 [Example 157, N-(2,3-dihydro-1,4-benzodioxin-6-ylmethyl)-1-{2-[3-fluoro-6-(methoxy)-1,5-naphthyridin-4-yl]ethyl}-4-piperidinamine]	≤ 2 mg/L
COc1ccc2ncc(F)c(C(O)CN3CCC(NCc4cc5c(cn4)OCCO5)CC3)c2n1.Cl.Cl.O (single isomer, unassigned; enantiomer 2) [Example 100, 2-{4-[(2,3-Dihydro[1,4]dioxino[2,3-c]pyridin-7-ylmethyl)amino]-1-piperidinyl}-1-[3-fluoro-6-(methoxy)-1,5-naphthyridin-4-yl]ethanol Dihydrochloride Hydrate Enantiomer 2]	≤ 2 mg/L
COc1ccc2ncc(Cl)c(CCN3CC[C@H](NCc4ccc5c(n4)NC(=O)CS5)[C@H](O)C3)c2c1 (single isomer, unassigned; enantiomer 2) [Example 8, 6-({(cis)-1-[2-(3-Chloro-6-methoxy-quinolin-4-yl)-ethyl]-3-hydroxy-piperidin-4-ylamino}-methyl)-4H-pyrido[3,2-b][1,4]thiazin-3-one Dihydrochloride Enantiomer 2]	≤ 2 mg/L
COc1cc(F)c2ncc(Cl)c(CCN3CCC(NCc4ccc5c(n4)NC(=O)CS5)CC3)c2c1 [Example 160, 6-{[(1-{2-[3-chloro-8-fluoro-6-(methoxy)-4-quinolinyl]ethyl}-4-piperidinyl)amino]methyl}-2H-pyrido[3,2-b][1,4]thiazin-3(4H)-one]	≤ 2 mg/L
COc1ccc2ncc(F)c(CCN3CCC(NCc4cc5c(cn4)OCCC5)CC3)c2n1.Cl.Cl [Example 126, N-(3,4-dihydro-2H-pyrano[2,3-c]pyridin-6-ylmethyl)-1-{2-[3-fluoro-6-(methoxy)-1,5-naphthyridin-4-yl]ethyl}-4-piperidinamine dihydrochloride]	≤ 2 mg/L
COc1c(F)ccc2ncc(Cl)c(CCN3CCC(NCc4ccc5c(n4)NC(=O)CS5)CC3)c12.Cl.Cl [Example 22, 6-({1-[2-(3-Chloro-6-fluoro-5-methoxy-quinolin-4-yl)-ethyl]-piperidin-4-ylamino}-methyl)-4H-pyrido[3,2-b][1,4]thiazin-3-one Dihydrochloride]	≤ 2 mg/L
COc1ccc2ncc(F)c(CCN3CCC(NCC4=CC=C5CCCN=C5N4)CC3)c2c1.Cl.Cl [Example 77, 1-{2-[3-fluoro-6-(methoxy)-4-quinolinyl]ethyl}-N-(1,5,6,7-tetrahydro-1,8-naphthyridin-2-ylmethyl)-4-piperidinamine dihydrochloride]	≤ 2 mg/L
COc1cc(F)c2ncc(Cl)c(CCN3CC[C@H](NCc4ccc5c(n4)NC(=O)CS5)[C@H](F)C3)c2c1.Cl.Cl (single isomer, unassigned; enantiomer 1) [Example 142, cis-6-{[(1-{2-[3-chloro-8-fluoro-6-(methoxy)-4-quinolinyl]ethyl}-3-fluoro-4-piperidinyl)amino]methyl}-2H-pyrido[3,2-b][1,4]thiazin-3(4H)-one dihydrochloride Enantiomer 1]	≤ 2 mg/L
COc1ccc2ncc(F)c(CCN3CC[C@H](NCc4cc5c(cn4)OCCO5)[C@H](O)C3)c2c1.Cl.Cl.Cl.Cl (single isomer, unassigned; enantiomer 1) [Example 34, cis-4-[(2,3-Dihydro-[1,4]dioxino[2,3-c]pyridin-7-ylmethyl)-amino]-1-[2-(3-fluoro-6-methoxy-quinolin-4-yl)-ethyl]-piperidin-3-ol dihydrochloride dihydrochloride Enantiomer 1]	≤ 2 mg/L
COc1ccc2ncc(Cl)c(CCN3CC[C@H](NCc4ccc5c(n4)NC(=O)CO5)[C@H](O)C3)c2n1.Cl.Cl (single isomer, unassigned; enantiomer 2) [Example 10, 6-({(cis)-1-[2-(3-Chloro-6-methoxy-[1,5]naphthyridin-4-yl)-ethyl]-3-hydroxy-piperidin-4-ylamino}-methyl)-4H-pyrido[3,2-b][1,4]oxazin-3-one Dihydrochloride Enantiomer 2]	≤ 2 mg/L
COc1cc(F)c2ncc(F)c(CCN3CCC(NCc4cnc5c(c4)NC(=O)CS5)CC3)c2c1.Cl.Cl [Example 48, 7-{[(1-{2-[3,8-Difluoro-6-(methoxy)-4-quinolinyl]ethyl}-4-piperidinyl)amino]methyl}-1H-pyrido[2,3-b][1,4]thiazin-2(3H)-one dihydrochloride]	≤ 2 mg/L
COc1ccc2ncc(F)c(CCN3CCC(NCc4cc5c(cn4)SCCN5)CC3)c2n1.Cl.Cl [Example 54, N-(2,3-Dihydro-1H-pyrido[3,4-b][1,4]thiazin-7-ylmethyl)-1-{2-[3-fluoro-6-(methoxy)-1,5-naphthyridin-4-yl]ethyl}-4-piperidinamine dihydrochloride]	≤ 2 mg/L
COc1ccc2ncc(Cl)c(CCN3CCC(NCc4cc5c(cn4)OCCO5)CC3)c2n1.Cl.Cl [Example 3, {1-[2-(3-Chloro-6-methoxy-[1,5]naphthyridin-4-yl)-ethyl]-piperidin-4-yl}-(2,3-dihydro-[1,4]dioxino[2,3-c]pyridin-7-ylmethyl)-amine Dihydrochloride]	≤ 2 mg/L
COc1cc(F)c2ncc(F)c(CCN3CCC(NCc4cc5c(cn4)OCO5)CC3)c2c1.Cl.Cl [Example 51, 1-{2-[3,8-difluoro-6-(methoxy)-4-quinolinyl]ethyl}-N-([1,3]dioxolo[4,5-c]pyridin-6-ylmethyl)-4-piperidinamine dihydrochloride]	≤ 2 mg/L
COc1ccc2ncc(F)c(CCN3CCC(C)(NC(=O)c4ccc5c(n4)NC(=O)CS5)CC3)c2n1 [Example 168, N-(1-{2-[3-fluoro-6-(methoxy)-1,5-naphthyridin-4-yl]ethyl}-4-methyl-4-piperidinyl)-3-oxo-3,4-dihydro-2H-pyrido[3,2-b][1,4]thiazine-6-carboxamide]	≤ 2 mg/L
COc1c(F)ccc2ncc(Cl)c(CCN3CCC(NCc4cc5c(cn4)OCCO5)CC3)c12.Cl.Cl [Example 110, 1-{2-[3-chloro-6-fluoro-5-(methoxy)-4-quinolinyl]ethyl}-N-(2,3-dihydro[1,4]dioxino[2,3-c]pyridin-7-ylmethyl)-4-piperidinamine dihydrochloride]	≤ 2 mg/L
Cl.Cl.O=C1CSc2ccc(CNC3CCN(CCc4c(Cl)cnc5ccc(Cl)cc45)CC3)nc2N1 [Example 27, 6-({1-[2-(3,6-Dichloro-quinolin-4-yl)-ethyl]-piperidin-4-ylamino}-methyl)-4H-pyrido[3,2-b][1,4]thiazin-3-one Dihydrochloride]	≤ 2 mg/L
COc1ccc2ncc(F)c(CCN3CCC(NCc4cc5c(nn4)SCC(=O)N5)CC3)c2n1.Cl.Cl [Example 58, 3-{[(1-{2-[3-fluoro-6-(methoxy)-1,5-naphthyridin-4-yl]ethyl}-4-piperidinyl)amino]methyl}-5H-pyridazino[3,4-b][1,4]thiazin-6(7H)-one dihydrochloride]	≤ 2 mg/L
Cl.Cl.Clc1cnc2ccc3c(c2c1CCN1CCC(NCc2cc4c(cn2)OCCO4)CC1)OCCO3 [Example 52, {1-[2-(9-Chloro-2,3-dihydro-[1,4]dioxino[2,3-f]quinolin-10-yl)-ethyl]-piperidin-4-yl}-(2,3-dihydro-[1,4]dioxino[2,3-c]pyridin-7-ylmethyl)-amine dihydrochloride]	≤ 2 mg/L
COc1cc(F)c2ncc(F)c(CCN3CC[C@H](NCc4ccc5c(n4)NC(=O)CO5)[C@H](O)C3)c2c1.Cl.Cl [Example 75, 6-{[((3R,4S)-1-{2-[3,8-difluoro-6-(methoxy)-4-quinolinyl]ethyl}-3-hydroxy-4-piperidinyl)amino]methyl}-2H-pyrido[3,2-b][1,4]oxazin-3(4H)-one dihydrochloride]	≤ 2 mg/L
COc1ccc2ncc(F)c(CCN3CCC(NCc4cnc5c(c4)NC(=O)CS5)CC3)c2c1.Cl.Cl [Example 84, 7-{[(1-{2-[3-fluoro-6-(methoxy)-4-quinolinyl]ethyl}-4-piperidinyl)amino]methyl}1H-pyrido[2,3-b][1,4]thiazin-2(3H)-one dihydrochloride]	≤ 2 mg/L
COc1ccc2ncc(Cl)c(CCN3CC[C@H](NCc4cc5c(cn4)OCCO5)[C@H](O)C3)c2c1.Cl.Cl (single isomer, unassigned; enantiomer 1) [Example 45, cis-1-[2-(3-Chloro-6-methoxy-quinolin-4-yl)-ethyl]-4-[(2,3-dihydro-[1,4]dioxino[2,3-c]pyridin-7-ylmethyl)-amino]-piperidin-3-ol Dihydrochloride Enantiomer 1]	≤ 2 mg/L
